Data: patent publication US20110124586A1, “EXTERNAL PREPARATION FOR SKIN, AND WRINKLE-REPAIRING AGENT” (Kao Corporation, priority 2008, published 2011)

Columns and labels:
[1] = Moisture retention test (rate of decrease in water content of solution); assay type: physicochemical; conditions: 10 mass % in ion exchanged water; silica gel desiccator 25° C., RH 20%; vs water alone; FIG. 1
Protocol: In accordance with the following test method, the rate of decrease in water content of lauryl thiogalactoside (compound of Production Example 2) solution was calculated to evaluate moisture-retaining property.
0.5 g of a sample prepared by adjusting a concentration of lauryl thiogalactoside to 10 mass % with ion exchanged water was weighed in a container made of a resin to measure an initial weight (W0).
Next, the sample was left to stand still in a silica gel desiccator (RT; 25° C., RH; 20%) to measure a time-dependent weight (Wt) of the sample.
After the completion of the test, the sample was dried in a dryer (50° C.) for 2 hours and then left to stand still in a silica gel desiccator for 2 hours to measure a dry weight (Ws).
The same operation was conducted for a control sample prepared using water alone, and the rate of decrease in water content was calculated with the following equation.
Rate of decrease in water content (%)=Ht/H0×100(Ht=Wt−Ws, H0=W0−Ws)

photoaged skin = experiment: Wrinkle reduction test on photoaged skin of hairless mice (UVA/UVB irradiation); assay type: in vivo; conditions: photoaged hairless mouse skin
Source text: A wrinkle-reducing effect in the case of applying a sample containing a base alone or lauryl thiogalactoside (compound of Production Example 2) to photoaged skin was examined by the following test methods.
Ten hairless mice, which were 10 weeks old at the start of the test, were used for each group.
Photoaging was induced by irradiation with UVA and UVB once a day, five times a week for 8 weeks. An irradiation dose was increased every week from 20 J/cm^2 to 25 J/cm^2 and to 30 J/cm^2 for UVA, from 20 mJ/cm^2 to 30 mJ/cm^2 and to 40 mJ/cm^2 for UVB, and the maximum dose was irradiated in Week 3 or later.
A wrinkle-reducing effect was evaluated by a wrinkle score and an epidermal thickness. The wrinkle score was determined in accordance with the method of Bissett et al. (Photochem. Photobiol. 46: 367-378, 1987). In other words, the size and depth of wrinkles were comprehensively evaluated with naked eyes and scored with the following four grades: 3, “large and deep wrinkles can be confirmed”; 2, “wrinkles can be confirmed”; 1, “no wrinkles can be confirmed”; and 0, “normal skin texture can be observed”. […]
A sample containing lauryl thiogalactoside in an amount of 1% in a 50 vol % ethanol aqueous solution (base) was prepared (Example 1). […] Subsequently, after the completion of the application, the wrinkle score was determined. […]

SMILES: CCCCCCCCCCCCSC1OC(CO)C(O)C(O)C1O (stereo not shown) [lauryl thiogalactoside]
- Moisture-retaining property (rate of decrease in water content) [1]: did not suppress water volatilization in a dry state and exhibited an insufficient moisture-retaining action
- Effect on epidermal thickening (in words) (photoaged skin): had an effect of alleviating the epidermal thickening owing to photoaging
- Effect on wrinkles / wrinkle score (in words) (photoaged skin): effective for wrinkles induced by photoaging
- Result in an ordinary safety test (Ordinary safety test): does not have any problem in an ordinary safety test
